Experimental data: patent US20220298138A1, “ENZYME INHIBITORS” (KALVISTA PHARMACEUTICALS LIMITED, priority 2019, published 2022)
Read-outs that look alike come from different tables or passages of the source.

Molecular target: T1, Human Factor XIIa (Homo sapiens, UniProt P00748)
T1 construct: purchased Enzyme Research Laboratories
T1 sequence (P00748 373-615 limits assumed): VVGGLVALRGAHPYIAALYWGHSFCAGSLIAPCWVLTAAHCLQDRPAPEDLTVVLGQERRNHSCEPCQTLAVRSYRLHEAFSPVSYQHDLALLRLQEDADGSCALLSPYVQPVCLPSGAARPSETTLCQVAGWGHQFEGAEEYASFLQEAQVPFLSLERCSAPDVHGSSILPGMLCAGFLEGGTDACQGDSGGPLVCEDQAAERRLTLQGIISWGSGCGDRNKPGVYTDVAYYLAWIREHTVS
Assay: Factor XIIa inhibitory activity in vitro (fluorogenic substrate H-DPro-Phe-Arg-AFC)
Assay type: biochemical
Conditions: 25° C., read-out: Human FXIIa IC50
Method: Determination of the % Inhibition for FXIIa
Human Factor XIIa (Enzyme Research Laboratories) was incubated at 25° C. with the fluorogenic substrate H-DPro-Phe-Arg-AFC and various concentrations of the test compound. Residual enzyme activity (initial rate of reaction) was determined by measuring the change in […] at 410 nm and the IC50 value for the test compound was determined.

[1] = numeric bound instead of class symbol

## Nc1nccc2cc(CNC(=O)[C@H](Cc3ccc(F)c(F)c3)NC(=O)CCc3nnc(-c4ccccc4)o3)ccc12 [Example 0.51]
Class symbols
  IC50: 10 to 40 µM

## Cn1cc(C(=O)N[C@@H](Cc2ccc(F)c(F)c2)C(=O)NCc2ccc3c(N)nccc3c2)ccc1=O [Example 0.52]
Class symbols
  IC50: 3 to 10 µM

## Cc1nc2ccccn2c1C(=O)N[C@@H](Cc1ccc(F)c(F)c1)C(=O)NCc1ccc2c(N)nccc2c1 [Example 0.53]
Class symbols
  IC50: 10 to 40 µM

## CC(C)c1cc(C(=O)N[C@@H](Cc2ccc(F)c(F)c2)C(=O)NCc2ccc3c(N)nccc3c2)[nH]n1 [Example 0.54]
Class symbols
  IC50: 3 to 10 µM

## CCn1nc(C)cc1C(=O)N[C@@H](Cc1ccc(F)c(F)c1)C(=O)NCc1ccc2c(N)nccc2c1 [Example 0.55]
Class symbols
  IC50: 10 to 40 µM

## Nc1nccc2cc(CNC(=O)[C@H](Cc3ccc(F)c(F)c3)NC(=O)C3CCC(O)CC3)ccc12 (stereo partly shown) [Example 0.56]
Class symbols
  IC50: 10 to 40 µM

## Nc1nccc2cc(CNC(=O)[C@H](Cc3ccc(F)c(F)c3)NC(=O)c3cccc(O)n3)ccc12 [Example 0.57]
Class symbols
  IC50: 1 to 3 µM

## COc1cc(C(=O)N[C@@H](Cc2ccc(F)c(F)c2)C(=O)NCc2ccc3c(N)nccc3c2)ccc1F [Example 0.58]
Class symbols
  IC50: 3 to 10 µM

## Nc1nccc2cc(CNC(=O)[C@H](Cc3ccc(F)c(F)c3)NC(=O)c3cc(CO)ccn3)ccc12 [Example 0.59]
Class symbols
  IC50: 3 to 10 µM

## CNS(=O)(=O)c1cccc(C(=O)N[C@@H](Cc2ccc(F)c(F)c2)C(=O)NCc2ccc3c(N)nccc3c2)c1 [Example 0.60]
Class symbols
  IC50: 3 to 10 µM

## Nc1nccc2cc(CNC(=O)[C@H](Cc3ccc(F)c(F)c3)NC(=O)c3c[nH]nc3C3CC3)ccc12 [Example 0.61]
Class symbols
  IC50: 10 to 40 µM

## Nc1nccc2cc(CNC(=O)[C@H](Cc3ccc(F)c(F)c3)NC(=O)c3ccc(O)nc3)ccc12 [Example 0.62]
Class symbols
  IC50: 3 to 10 µM

## Cc1nc(C(F)(F)F)ccc1C(=O)N[C@@H](Cc1ccc(F)c(F)c1)C(=O)NCc1ccc2c(N)nccc2c1 [Example 0.63]
[1]
  IC50: > 12.7 µM

## Nc1nccc2cc(CNC(=O)[C@H](Cc3ccc(F)c(F)c3)NC(=O)c3cn[nH]c3)ccc12 [Example 0.65]
Class symbols
  IC50: 10 to 40 µM

## Nc1nccc2cc(CNC(=O)[C@H](Cc3ccc(F)c(F)c3)NC(=O)C(F)F)ccc12 [Example 0.66]
Class symbols
  IC50: 3 to 10 µM

## Nc1nccc2cc(CNC(=O)[C@H](Cc3ccc(F)c(F)c3)NC(=O)c3ccc(Cn4cnnn4)cc3)ccc12 [Example 0.67]
Class symbols
  IC50: 1 to 3 µM

## Nc1nccc2cc(CNC(=O)[C@H](Cc3ccc(F)c(F)c3)NC(=O)c3cccc(Cn4cccn4)c3)ccc12 [Example 0.68]
Class symbols
  IC50: 10 to 40 µM

## Cn1cncc1C(=O)N[C@@H](Cc1ccc(F)c(F)c1)C(=O)NCc1ccc2c(N)nccc2c1 [Example 0.69]
Class symbols
  IC50: 10 to 40 µM

## CCCn1ncc(C(=O)N[C@@H](Cc2ccc(F)c(F)c2)C(=O)NCc2ccc3c(N)nccc3c2)c1C [Example 0.70]
Class symbols
  IC50: 10 to 40 µM

## Nc1nccc2cc(CNC(=O)[C@H](Cc3ccc(F)c(F)c3)NC(=O)c3ccncn3)ccc12 [Example 0.71]
Class symbols
  IC50: 3 to 10 µM

## Nc1nccc2cc(CNC(=O)[C@H](Cc3ccc(F)c(F)c3)NC(=O)C3(C(F)(F)F)CC3)ccc12 [Example 0.72]
Class symbols
  IC50: 10 to 40 µM

## Nc1nccc2cc(CNC(=O)[C@H](Cc3ccc(F)c(F)c3)NC(=O)c3cc(F)cc(F)c3)ccc12 [Example 0.73]
Class symbols
  IC50: 10 to 40 µM

## Nc1nccc2cc(CNC(=O)[C@H](Cc3ccc(F)c(F)c3)NC(=O)c3nc4ccccc4[nH]c3=O)ccc12 [Example 0.74]
Class symbols
  IC50: 10 to 40 µM

## CC(C)c1cc(C(=O)N[C@@H](Cc2ccc(F)c(F)c2)C(=O)NCc2ccc3c(N)nccc3c2)no1 [Example 0.75]
Class symbols
  IC50: 3 to 10 µM

## Nc1nccc2cc(CNC(=O)[C@H](Cc3ccc(F)c(F)c3)NC(=O)c3ccc4c(c3)CC=C(O)N4)ccc12 [Example 0.76]
Class symbols
  IC50: 10 to 40 µM

## Nc1nccc2cc(CNC(=O)[C@H](Cc3ccc(F)c(F)c3)NC(=O)c3ccsc3)ccc12 [Example 0.77]
Class symbols
  IC50: 10 to 40 µM

## Nc1nccc2cc(CNC(=O)[C@H](Cc3ccc(F)c(F)c3)NC(=O)c3ccco3)ccc12 [Example 0.78]
Class symbols
  IC50: 3 to 10 µM

## CCCc1cc(C(=O)N[C@@H](Cc2ccc(F)c(F)c2)C(=O)NCc2ccc3c(N)nccc3c2)nn1C [Example 0.79]
Class symbols
  IC50: 3 to 10 µM

## Nc1nccc2cc(CNC(=O)[C@H](Cc3ccc(F)c(F)c3)NC(=O)c3nccc4ccccc34)ccc12 [Example 0.80]
Class symbols
  IC50: 10 to 40 µM

## Nc1nccc2cc(CNC(=O)[C@H](Cc3ccc(F)c(F)c3)NC(=O)c3cccc(N4CCCC4=O)c3)ccc12 [Example 0.81]
Class symbols
  IC50: 3 to 10 µM

## Nc1nccc2cc(CNC(=O)[C@H](Cc3ccc(F)c(F)c3)NC(=O)c3cccs3)ccc12 [Example 0.82]
Class symbols
  IC50: 10 to 40 µM

## Cc1ccnn1-c1ccc(C(=O)N[C@@H](Cc2ccc(F)c(F)c2)C(=O)NCc2ccc3c(N)nccc3c2)cc1 [Example 0.83]
[1]
  IC50: > 12.7 µM

## COc1cnccc1C(=O)N[C@@H](Cc1ccc(F)c(F)c1)C(=O)NCc1ccc2c(N)nccc2c1 [Example 0.84]
Class symbols
  IC50: 10 to 40 µM

## Nc1nccc2cc(CNC(=O)[C@H](Cc3ccc(F)c(F)c3)NC(=O)c3cc4ccccc4[nH]3)ccc12 [Example 0.85]
Class symbols
  IC50: 10 to 40 µM

## CN(C)C(C)(C)C(=O)N[C@@H](Cc1ccc(F)c(F)c1)C(=O)NCc1ccc2c(N)nccc2c1 [Example 0.86]
Class symbols
  IC50: 1 to 3 µM

## CC(C)c1cc(C(=O)N[C@@H](Cc2ccc(F)c(F)c2)C(=O)NCc2ccc3c(N)nccc3c2)ncn1 [Example 0.87]
Class symbols
  IC50: 0.28 to 1 µM

## Cn1nc(C(C)(C)C)cc1C(=O)N[C@@H](Cc1ccc(F)c(F)c1)C(=O)NCc1ccc2c(N)nccc2c1 [Example 0.88]
Class symbols
  IC50: 10 to 40 µM

## CC(C)c1ncncc1C(=O)N[C@@H](Cc1ccc(F)c(F)c1)C(=O)NCc1ccc2c(N)nccc2c1 [Example 0.89]
Class symbols
  IC50: 10 to 40 µM

## CC(C)c1cc(C(=O)N[C@@H](Cc2ccc(F)c(F)c2)C(=O)NCc2ccc3c(N)nccc3c2)n(C)n1 [Example 0.90]
Class symbols
  IC50: 10 to 40 µM

## CC(C)c1nc(C(=O)N[C@@H](Cc2ccc(F)c(F)c2)C(=O)NCc2ccc3c(N)nccc3c2)cs1 [Example 0.91]
Class symbols
  IC50: 10 to 40 µM

## CC(C)c1ncc(C(=O)N[C@@H](Cc2ccc(F)c(F)c2)C(=O)NCc2ccc3c(N)nccc3c2)cn1 [Example 0.92]
Class symbols
  IC50: 3 to 10 µM

## Nc1nccc2cc(CNC(=O)[C@H](Cc3ccc(F)c(F)c3)NC(=O)c3ccn4ncnc4n3)ccc12 [Example 0.93]
Class symbols
  IC50: 1 to 3 µM

## CC1CCCC(C)N1CC(=O)N[C@@H](Cc1cccc2ccccc12)C(=O)NCc1ccc2c(N)nccc2c1 (stereo partly shown) [Example 3.02]
Class symbols
  IC50: 0.1 to 0.279 µM

## CN(C)CC(=O)N[C@@H](Cc1ccc(F)c(F)c1)C(=O)NCc1ccc2c(N)nccc2c1 [Example 3.03]
Class symbols
  IC50: 1 to 3 µM

## CC1CCCC(C)N1CC(=O)N[C@@H](Cc1cccc(F)c1)C(=O)NCc1ccc2c(N)nccc2c1 (stereo partly shown) [Example 3.04]
Class symbols
  IC50: 0.1 to 0.279 µM

## CC1CCCC(C)N1CC(=O)N[C@@H](Cc1ccccc1Cl)C(=O)NCc1ccc2c(N)nccc2c1 (stereo partly shown) [Example 3.05]
Class symbols
  IC50: 1 to 3 µM

## Nc1nccc2cc(CNC(=O)[C@H](Cc3ccc(F)c(F)c3)NC(=O)CN3CCCCC3)ccc12 [Example 3.06]
Class symbols
  IC50: 1 to 3 µM

## Nc1nccc2cc(CNC(=O)[C@H](Cc3ccc(F)c(F)c3)NC(=O)CN3CCOCC3)ccc12 [Example 3.07]
Class symbols
  IC50: 10 to 40 µM

## CC(C)N(C)CC(=O)N[C@@H](Cc1ccc(F)c(F)c1)C(=O)NCc1ccc2c(N)nccc2c1 [Example 3.08]
Class symbols
  IC50: 0.28 to 1 µM

## CC(C)N(CC(=O)N[C@@H](Cc1ccc(F)c(F)c1)C(=O)NCc1ccc2c(N)nccc2c1)C(C)C [Example 3.09]
Class symbols
  IC50: 0.28 to 1 µM

## C[C@@H]1CCC[C@H](C)N1CC(=O)N[C@@H](Cc1csc2ccccc12)C(=O)NCc1ccc2c(N)nccc2c1 [Example 3.10]
Class symbols
  IC50: 0.03 to 0.1 µM

## C[C@@H]1CCC[C@H](C)N1CC(=O)N[C@@H](Cc1ccccc1)C(=O)NCc1ccc2c(N)nccc2c1 [Example 3.11]
Class symbols
  IC50: 0.1 to 0.279 µM

## C[C@@H]1CCC[C@H](C)N1CC(=O)N[C@@H](Cc1ccc(Cl)cc1)C(=O)NCc1ccc2c(N)nccc2c1 [Example 3.12]
Class symbols
  IC50: 3 to 10 µM

## C[C@@H]1CCC[C@H](C)N1CC(=O)N[C@@H](Cc1cccc(Cl)c1)C(=O)NCc1ccc2c(N)nccc2c1 [Example 3.13]
Class symbols
  IC50: 0.1 to 0.279 µM

## C[C@@H]1CCC[C@H](C)N1CC(=O)N[C@@H](Cc1ccc(F)cc1)C(=O)NCc1ccc2c(N)nccc2c1 [Example 3.14]
Class symbols
  IC50: 0.1 to 0.279 µM

## C[C@@H]1CCC[C@H](C)N1CC(=O)N[C@@H](CCc1ccccc1)C(=O)NCc1ccc2c(N)nccc2c1 [Example 3.15]
Class symbols
  IC50: 1 to 3 µM

## C[C@@H]1CCC[C@H](C)N1CC(=O)N[C@@H](CC1CCCCC1)C(=O)NCc1ccc2c(N)nccc2c1 [Example 3.16]
Class symbols
  IC50: 3 to 10 µM

## C[C@@H]1CCC[C@H](C)N1CC(=O)N[C@H](Cc1ccc(F)c(F)c1)C(=O)NCc1ccc2c(N)nccc2c1 [Example 3.17]
Class symbols
  IC50: 1 to 3 µM

## CC1(C)CCCN1CC(=O)N[C@@H](Cc1ccc(F)c(F)c1)C(=O)NCc1ccc2c(N)nccc2c1 [Example 3.18]
Class symbols
  IC50: 0.28 to 1 µM

## C[C@H]1CC[C@H](C)N1CC(=O)N[C@@H](Cc1ccc(F)c(F)c1)C(=O)NCc1ccc2c(N)nccc2c1 [Example 3.19]
Class symbols
  IC50: 0.28 to 1 µM

## C[C@@H]1CC[C@H](C)N1CC(=O)N[C@@H](Cc1ccc(F)c(F)c1)C(=O)NCc1ccc2c(N)nccc2c1 [Example 3.20]
Class symbols
  IC50: 0.28 to 1 µM

## C[C@@H]1CCC[C@H](C)N1CC(=O)N[C@@H](Cc1c[nH]c2ccccc12)C(=O)NCc1ccc2c(N)nccc2c1 [Example 3.21]
Class symbols
  IC50: 0.1 to 0.279 µM

## CC[C@H](NC(=O)CN1[C@H](C)CCC[C@@H]1C)C(=O)NCc1ccc2c(N)nccc2c1 [Example 3.22]
Class symbols
  IC50: 3 to 10 µM

## Nc1nccc2cc(CNC(=O)[C@H](Cc3ccc(F)c(F)c3)NC(=O)Cc3cccnc3)ccc12 [Example 3.23]
Class symbols
  IC50: 10 to 40 µM
